Laboratory results reported in patent US8580918B2, “Peptidic GLP-2 agonists” (Ferring B.V., priority 2009, dated 2013).
Where a SMILES comes first, the peptide text is derived from it. [ ]: non-standard residue; d: D form. dPhe(4-Cl) = N[C@H](Cc1ccc(Cl)cc1)C(=O)O; Dip = N[C@H](C(=O)O)C(c1ccccc1)c1ccccc1; Phe(4-NH2) = Nc1ccc(C[C@H](N)C(=O)O)cc1; 2Nal = N[C@@H](Cc1ccc2ccccc2c1)C(=O)O; hPhe = N[C@@H](CCc1ccccc1)C(=O)O; Cha = N[C@@H](CC1CCCCC1)C(=O)O; Nle = CCCC[C@H](N)C(=O)O

Experiment: Pharmacokinetics in rats after intravenous bolus injection (systemic clearance)
Assay type: in vivo
Details: rat, plasma, 0.2 mg FB/kg, adult male Sprague-Dawley rats, i.v. bolus, dose 0.20 mg FB/kg, read-out: CL (ml/kg/min) Average
Experimental: Pharmacokinetic (PK) parameters of illustrative agonists of the GLP-2 receptor were determined in adult male Sprague-Dawley rats post intravenous bolus injection of compounds at doses of 0.1-1.0 mg/kg. Three or four doubly cannulated animals per compound were dosed via jugular vein, blood samples were collected at several intervals via carotid artery, and plasma samples were prepared from whole blood using K2EDTA as anticoagulant. Subsequent bioanalysis of samples included compound extraction and plasma concentration determination using standard LC/MS/MS methods. Analyte concentration was calculated from internal standard normalized peak area and calibration curves.
For calculation of PK parameters the compound concentration-time curves were analyzed with the noncompartmental data analysis software package PK Solutions 2.0™ (Summit Research Services, Montrose Colo.). The systemic clearance per kg body weight (CL) was calculated as the dose per kg body weight divided by the AUC extrapolated to infinity based on trapezoid calculation (AUC∞). Values reported are the arithmetic mean and standard deviation from the number of animals used for each compound as indicated on Table 3.
With CCCC[C@H](NC(=O)[C@H](CCC(=O)O)NC(=O)[C@H](CC(=O)O)NC(=O)[C@H](CO)NC(=O)[C@H](Cc1ccccc1)NC(=O)[C@H](CO)NC(=O)CNC(=O)[C@H](CC(=O)O)NC(=O)CNC(=O)[C@@H](N)Cc1c[nH]cn1)C(=O)N[C@@H](CC(N)=O)C(=O)N[C@H](C(=O)N[C@H](C(=O)N[C@@H](CC(C)C)C(=O)N[C@@H](CC(=O)O)C(=O)N[C@@H](Cc1c[nH]c2ccccc12)C(=O)N[C@@H](CC(C)C)C(=O)N[C@@H](C)C(=O)N[C@@H](C)C(=O)N[C@@H](CCCNC(=N)N)C(=O)N[C@@H](CC(=O)O)C(=O)N[C@@H](Cc1ccccc1)C(=O)N[C@H](C(=O)N[C@@H](CC(N)=O)C(=O)N[C@@H](Cc1c[nH]c2ccccc12)C(=O)N[C@@H](CC(C)C)C(=O)N[C@H](C(=O)N[C@@H](CCC(N)=O)C(=O)N[C@H](C(=O)N[C@@H](CCCCN)C(N)=O)[C@@H](C)O)[C@@H](C)CC)[C@@H](C)CC)[C@@H](C)CC)[C@@H](C)O [Compound 22, [Gly2,Nle10,Trp16] hGLP-2 (1-30)-NH2] (H-HGDGSFSDE[Nle]NTILDWLAARDFINWLIQTK-NH2) the clearance was 0.5 mL/kg/min. For CCCC[C@H](NC(=O)[C@H](CCC(=O)O)NC(=O)[C@H](CC(=O)O)NC(=O)[C@H](CO)NC(=O)[C@H](Cc1ccccc1)NC(=O)[C@H](CO)NC(=O)CNC(=O)[C@H](CC(=O)O)NC(=O)CNC(=O)[C@@H](N)Cc1cnc[nH]1)C(=O)N[C@@H](CC(N)=O)C(=O)N[C@H](C(=O)N[C@H](C(=O)N[C@@H](CC(C)C)C(=O)N[C@@H](CC(=O)O)C(=O)N[C@@H](CC1CCCCC1)C(=O)N[C@@H](CC(C)C)C(=O)N[C@@H](C)C(=O)N[C@@H](C)C(=O)N[C@@H](CCCNC(=N)N)C(=O)N[C@@H](CC(=O)O)C(=O)N[C@@H](Cc1ccccc1)C(=O)N[C@H](C(=O)N[C@@H](CC(N)=O)C(=O)N[C@@H](Cc1c[nH]c2ccccc12)C(=O)N[C@@H](CC(C)C)C(=O)N[C@H](C(=O)N[C@@H](CCC(N)=O)C(=O)N[C@H](C(=O)N[C@@H](CCCCN)C(N)=O)[C@@H](C)O)[C@@H](C)CC)[C@@H](C)CC)[C@@H](C)CC)[C@@H](C)O [Compound 23, [Gly2,Nle10,Cha16] hGLP-2 (1-30)-NH2] (H-HGDGSFSDE[Nle]NTILD[Cha]LAARDFINWLIQTK-NH2), the clearance was 0.41 mL/kg/min. With CCCC[C@H](NC(=O)[C@H](CCC(=O)O)NC(=O)[C@H](CC(=O)O)NC(=O)[C@H](CO)NC(=O)[C@H](Cc1ccccc1)NC(=O)[C@H](CO)NC(=O)CNC(=O)[C@H](CC(=O)O)NC(=O)CNC(=O)[C@@H](N)Cc1c[nH]cn1)C(=O)N[C@@H](CC(N)=O)C(=O)N[C@H](C(=O)N[C@H](C(=O)N[C@@H](CC(C)C)C(=O)N[C@@H](CC(=O)O)C(=O)N[C@@H](Cc1ccc(N)cc1)C(=O)N[C@@H](CC(C)C)C(=O)N[C@@H](C)C(=O)N[C@@H](C)C(=O)N[C@@H](CCCNC(=N)N)C(=O)N[C@@H](CC(=O)O)C(=O)N[C@@H](Cc1ccccc1)C(=O)N[C@H](C(=O)N[C@@H](CC(N)=O)C(=O)N[C@@H](Cc1c[nH]c2ccccc12)C(=O)N[C@@H](CC(C)C)C(=O)N[C@H](C(=O)N[C@@H](CCC(N)=O)C(=O)N[C@H](C(=O)N[C@@H](CCCCN)C(N)=O)[C@@H](C)O)[C@@H](C)CC)[C@@H](C)CC)[C@@H](C)CC)[C@@H](C)O [Compound 24, [Gly2,Nle10,Aph16] hGLP-2 (1-30)-NH2] (H-HGDGSFSDE[Nle]NTILD[Phe(4-NH2)]LAARDFINWLIQTK-NH2) the clearance was 1.9 mL/kg/min. CCCC[C@H](NC(=O)[C@H](CCC(=O)O)NC(=O)[C@H](CC(=O)O)NC(=O)[C@H](CO)NC(=O)[C@H](Cc1ccccc1)NC(=O)[C@H](CO)NC(=O)CNC(=O)[C@H](CC(=O)O)NC(=O)CNC(=O)[C@@H](N)Cc1c[nH]cn1)C(=O)N[C@@H](CC(N)=O)C(=O)N[C@H](C(=O)N[C@H](C(=O)N[C@@H](CC(C)C)C(=O)N[C@@H](CC(=O)O)C(=O)N[C@H](C(=O)N[C@@H](CC(C)C)C(=O)N[C@@H](C)C(=O)N[C@@H](C)C(=O)N[C@@H](CCCNC(=N)N)C(=O)N[C@@H](CC(=O)O)C(=O)N[C@@H](Cc1ccccc1)C(=O)N[C@H](C(=O)N[C@@H](CC(N)=O)C(=O)N[C@@H](Cc1c[nH]c2ccccc12)C(=O)N[C@@H](CC(C)C)C(=O)N[C@H](C(=O)N[C@@H](CCC(N)=O)C(=O)N[C@H](C(=O)N[C@@H](CCCCN)C(N)=O)[C@@H](C)O)[C@@H](C)CC)[C@@H](C)CC)C(c1ccccc1)c1ccccc1)[C@@H](C)CC)[C@@H](C)O [Compound 26, [Gly2,Nle10,Dip16] hGLP-2 (1-30)-NH2] (H-HGDGSFSDE[Nle]NTILD[Dip]LAARDFINWLIQTK-NH2) showed a clearance of 0.33 mL/kg/min. With CCCC[C@H](NC(=O)[C@H](CCC(=O)O)NC(=O)[C@H](CC(=O)O)NC(=O)[C@H](CO)NC(=O)[C@H](Cc1ccccc1)NC(=O)[C@H](CO)NC(=O)CNC(=O)[C@H](CC(=O)O)NC(=O)CNC(=O)[C@@H](N)Cc1c[nH]cn1)C(=O)N[C@@H](CC(N)=O)C(=O)N[C@H](C(=O)N[C@H](C(=O)N[C@@H](CC(C)C)C(=O)N[C@@H](CC(=O)O)C(=O)N[C@@H](CCc1ccccc1)C(=O)N[C@@H](CC(C)C)C(=O)N[C@@H](C)C(=O)N[C@@H](C)C(=O)N[C@@H](CCCNC(=N)N)C(=O)N[C@@H](CC(=O)O)C(=O)N[C@@H](Cc1ccccc1)C(=O)N[C@H](C(=O)N[C@@H](CC(N)=O)C(=O)N[C@@H](Cc1c[nH]c2ccccc12)C(=O)N[C@@H](CC(C)C)C(=O)N[C@H](C(=O)N[C@@H](CCC(N)=O)C(=O)N[C@H](C(=O)N[C@@H](CCCCN)C(N)=O)[C@@H](C)O)[C@@H](C)CC)[C@@H](C)CC)[C@@H](C)CC)[C@@H](C)O [Compound 28, [Gly2,Nle10,hPhe16] hGLP-2 (1-30)-NH2] (H-HGDGSFSDE[Nle]NTILD[hPhe]LAARDFINWLIQTK-NH2) the clearance was 0.44 mL/kg/min. With CCCC[C@H](NC(=O)[C@H](CCC(=O)O)NC(=O)[C@H](CC(=O)O)NC(=O)[C@H](CO)NC(=O)[C@H](Cc1ccccc1)NC(=O)[C@H](CO)NC(=O)CNC(=O)[C@H](CC(=O)O)NC(=O)CNC(=O)[C@@H](N)Cc1cnc[nH]1)C(=O)N[C@H](Cc1ccc(Cl)cc1)C(=O)N[C@H](C(=O)N[C@H](C(=O)N[C@@H](CC(C)C)C(=O)N[C@@H](CC(=O)O)C(=O)N[C@@H](CC(N)=O)C(=O)N[C@@H](CC(C)C)C(=O)N[C@@H](C)C(=O)N[C@@H](C)C(=O)N[C@@H](CCCNC(=N)N)C(=O)N[C@@H](CC(=O)O)C(=O)N[C@@H](Cc1ccccc1)C(=O)N[C@H](C(=O)N[C@@H](CC(N)=O)C(=O)N[C@@H](Cc1c[nH]c2ccccc12)C(=O)N[C@@H](CC(C)C)C(=O)N[C@H](C(=O)N[C@@H](CCC(N)=O)C(=O)N[C@H](C(=O)N[C@@H](CCCCN)C(N)=O)[C@@H](C)O)[C@@H](C)CC)[C@@H](C)CC)[C@@H](C)CC)[C@@H](C)O [Compound 29, [Gly2,Nle10,D-Cpa11] hGLP-2 (1-30)-NH2] (H-HGDGSFSDE[Nle][dPhe(4-Cl)]TILDNLAARDFINWLIQTK-NH2) the clearance was 0.51 mL/kg/min. In the case of CCCC[C@H](NC(=O)[C@H](CCC(=O)O)NC(=O)[C@H](CC(=O)O)NC(=O)[C@H](CO)NC(=O)[C@H](Cc1ccccc1)NC(=O)[C@H](CO)NC(=O)CNC(=O)[C@H](CC(=O)O)NC(=O)CNC(=O)[C@@H](N)Cc1c[nH]cn1)C(=O)N[C@H](Cc1c[nH]c2ccccc12)C(=O)N[C@H](C(=O)N[C@H](C(=O)N[C@@H](CC(C)C)C(=O)N[C@@H](CC(=O)O)C(=O)N[C@@H](CC(N)=O)C(=O)N[C@@H](CC(C)C)C(=O)N[C@@H](C)C(=O)N[C@@H](C)C(=O)N[C@@H](CCCNC(=N)N)C(=O)N[C@@H](CC(=O)O)C(=O)N[C@@H](Cc1ccccc1)C(=O)N[C@H](C(=O)N[C@@H](CC(N)=O)C(=O)N[C@@H](Cc1c[nH]c2ccccc12)C(=O)N[C@@H](CC(C)C)C(=O)N[C@H](C(=O)N[C@@H](CCC(N)=O)C(=O)N[C@H](C(=O)N[C@@H](CCCCN)C(N)=O)[C@@H](C)O)[C@@H](C)CC)[C@@H](C)CC)[C@@H](C)CC)[C@@H](C)O [Compound 30, [Gly2,Nle10,D-Trp11] hGLP-2 (1-30)-NH2] (H-HGDGSFSDE[Nle][dW]TILDNLAARDFINWLIQTK-NH2), the clearance is reported as 1.2 mL/kg/min.

Same assay, conditions: rat, plasma, adult male Sprague-Dawley rats, i.v. bolus, dose 0.18 mg FB/kg, read-out: CL (ml/kg/min) Average
Compound CCCC[C@H](NC(=O)[C@H](CCC(=O)O)NC(=O)[C@H](CC(=O)O)NC(=O)[C@H](CO)NC(=O)[C@H](Cc1ccccc1)NC(=O)[C@H](CO)NC(=O)CNC(=O)[C@H](CC(=O)O)NC(=O)CNC(=O)[C@@H](N)Cc1c[nH]cn1)C(=O)N[C@@H](CC(N)=O)C(=O)N[C@H](C(=O)N[C@H](C(=O)N[C@@H](CC(C)C)C(=O)N[C@@H](CC(=O)O)C(=O)N[C@@H](Cc1ccc2ccccc2c1)C(=O)N[C@@H](CC(C)C)C(=O)N[C@@H](C)C(=O)N[C@@H](C)C(=O)N[C@@H](CCCNC(=N)N)C(=O)N[C@@H](CC(=O)O)C(=O)N[C@@H](Cc1ccccc1)C(=O)N[C@H](C(=O)N[C@@H](CC(N)=O)C(=O)N[C@@H](Cc1c[nH]c2ccccc12)C(=O)N[C@@H](CC(C)C)C(=O)N[C@H](C(=O)N[C@@H](CCC(N)=O)C(=O)N[C@H](C(=O)N[C@@H](CCCCN)C(N)=O)[C@@H](C)O)[C@@H](C)CC)[C@@H](C)CC)[C@@H](C)CC)[C@@H](C)O [Compound 20, [Gly2,Nle10,2-Nal16] hGLP-2 (1-30)-NH2] (H-HGDGSFSDE[Nle]NTILD[2Nal]LAARDFINWLIQTK-NH2) has a clearance of 0.28 mL/kg/min.
